From patent publication US20050282840A1, “Methods of modulating neurotrophin-mediated activity” (PainCeptor Pharma Corporation, priority 2004, published 2005)
Read-outs that look alike come from different tables or passages of the source.

Experiments:
[1] = tested on: p75^NTR receptors (PC12 cells); assay: Basic screening assay: binding of 125I-NGF to PC12 cells; settings: test compound 50 μM, 0.5 nM 125I-NGF, PC12 cells, 2 h at 4° C., specific binding as percent of control
Method: (§1) The compounds were screened for effects on binding of ^125I-BDNF or ^125I-NGF to PC12 cells (p75^NTR receptors), and those that inhibited binding were further tested to determine the EC50 for this inhibition.
(§2) PC12 cells were cultured and prepared for binding assays as described in Example 1.
Lyophilized Serotec mouse 2.5S NGF (Cedarlane Laboratories, Toronto, Canada, cat. # PMP 04Z) was reconstituted under sterile conditions to 1 mg/mL (38 μM) in sterile 0.2% acetic acid, and 100 μL or 50 μL aliquots were stored frozen at −80° C.
(§3) Lypophilized Peprotech human recombinant BDNF (Cedarlane Laboratories, Toronto, Canada, cat. # PE 450-02-10) was reconstituted under sterile conditions to 3.5 μM in sterile HKR/1%BSA, and either used immediately or stored in aliquots of 20 μl at −80° C. Immediately prior to use, a 15 nM (30×) solution of ^125I-BDNF or ^125I-NGF was prepared in HKR buffer, and was used at 0.5 nM final concentration.
(§4) Test Compounds were dissolved to 10 mM in DMSO, and those that were not initially soluble were warmed to 40-50° C. and vortexed. Those compounds that were still not in solution were reported as such. Compounds were then stored in this form at −20° C. until use. Immediately before experiments, 100 mM compounds were diluted to 10 mM in DMSO (1:10), followed by a further dilution to 1 mM (1:10) with distilled water, and a further dilution to 500 μM (1:1) with HKR.
(§5) Assays to determine maximum binding (Bmax), non-specific binding (NSB), and binding in the presence of each test compound (e.g., x, y) were performed at least in duplicate. In a total volume of 300 μL, 4×10^6 PC12 cells were incubated, rotating for 2 h at 4° C. with the following:
(§6) At the conclusion of the binding reaction, 100 μL aliquots of the reaction mixtures were carefully layered over 200 μL of a 10% glycerol solution in a 0.4 mL tube, and subjected to centrifugation in a microcentrifuge for 2 minutes at half maximum speed. The cell pellets containing the bound ^125I-BDNF or ^125I-NGF were then measured using a gamma counter. The mean values of the replicates were then calculated to determine the value for maximum binding (Bmax) and nonspecific binding (NSB), and binding in the presence of test compound at 50 μM (Bx). Specific binding (SB) was measured by subtracting the NSB from the Bmax. Specific binding in the presence of the test compound (SBx) was determined by subtracting the NSB from the Bx for each test compound; and each SBx was divided by SB and multiplied by 100 to give the specific binding in the presence of the compound as a percent of control specific binding.

[2] = target: T1, p75^NTR receptors (PC12 cells) (Rattus norvegicus, UniProt P07174); assay: Basic screening assay: binding of 125I-BDNF to PC12 cells; settings: read-out: BDNF Activity % Maximal Binding
T1 construct: endogenous in cells; host or cells: PC12 cells
T1 sequence (P07174 30-425): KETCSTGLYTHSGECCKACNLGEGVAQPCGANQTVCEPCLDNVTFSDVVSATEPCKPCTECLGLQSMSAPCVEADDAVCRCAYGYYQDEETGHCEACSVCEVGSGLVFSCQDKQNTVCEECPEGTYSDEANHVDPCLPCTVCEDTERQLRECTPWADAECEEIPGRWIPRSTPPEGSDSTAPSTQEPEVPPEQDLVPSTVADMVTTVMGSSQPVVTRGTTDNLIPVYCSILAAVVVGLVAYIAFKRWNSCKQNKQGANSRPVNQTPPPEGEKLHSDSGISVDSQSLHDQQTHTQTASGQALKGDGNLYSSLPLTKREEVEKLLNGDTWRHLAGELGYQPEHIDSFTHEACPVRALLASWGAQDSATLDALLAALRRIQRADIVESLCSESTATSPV
T1 sequence (P23560 129-247 partner): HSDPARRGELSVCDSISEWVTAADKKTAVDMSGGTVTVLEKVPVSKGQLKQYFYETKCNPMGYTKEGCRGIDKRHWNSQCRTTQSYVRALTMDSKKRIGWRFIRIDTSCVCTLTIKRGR
Method: as §1, §2, §3, §4, §5
as §6, with “Bmax.” for “Bmax. Specific binding in the presence of the test compound (SBx) was determined by subtracting the NSB from the Bx for each test compound; and each SBx was divided by SB and multiplied by 100 to give the specific binding in the presence of the compound as a percent of control specific binding.”

[3] = Table 4, test compound 50 μM, 0.5 nM 125I-BDNF, PC12 cells, 2 h at 4° C., specific binding as percent of control
[4] = Table 1, test compound 50 μM, 0.5 nM 125I-BDNF, PC12 cells, 2 h at 4° C., specific binding as percent of control

Row | Structure (SMILES) | NGF Activity % Maximal Binding ([1]; Table 4) | activity at 50 µM [2, 3] | NGF Activity % Maximal Binding ([1]; Table 1) | activity at 50 µM [2, 4] | further results
1 | O=C1NC(=S)S/C1=C/c1ccc(-c2ccc([N+](=O)[O-])cc2Br)o1 [Compound 100, 5-[5-(2-Bromo-4-nitrophenyl)furan-2-ylmethylene]-2-thioxo-thiazolidin-4-one] | * (50 < *) | > 50% |  |  | 
2 | Cc1ccc(-c2ccc(/C=C3/NC(=O)NC3=O)o2)cc1[N+](=O)[O-] [Compound 114, 5-[5-(4-Methyl-3-nitrophenyl)furan-2-ylmethylene]-imidazolidine-2,4-dione] | * (50 < *) | > 50% |  |  | 
3 | COCCN1C(=O)C(=Cc2ccc(-c3cccc([N+](=O)[O-])c3)o2)SC1=S [Compound 34, 3-(2-Methoxy-ethyl)-5-[5-(3-nitrophenyl)furan-2-ylmethylene]-2-thioxo-thiazolidin-4-one] |  |  | * (50 < *) | 10 to 20% | 
4 | CCOC(=O)CN1C(=O)S/C(=C\c2ccc(-c3ccc(Cl)c([N+](=O)[O-])c3)o2)C1=O [Compound 113, {5-[5-(4-Chloro-3-nitrophenyl)furan-2-ylmethylene]-2,4-dioxo-thiazolidin-3-yl}-acetic acid ethyl ester] | * (50 < *) | > 50% |  |  | 
5 | CCOC(=O)CN1C(=O)S/C(=C/c2ccc(-c3ccc(C(=O)O)cc3C)o2)C1=O [Compound 121, 4-[5-(3-Ethoxycarbonylmethyl-2,4-dioxo-thiazolidin-5-ylidenemethyl)furan-2-yl]-3-methylbenzoic acid] | * (50 < *) | > 50% |  |  | 
6 | O=C(O)c1ccc(Cl)c(-c2ccc(/C=C3/NC(=O)N(Cc4ccc(F)cc4)C3=O)o2)c1 [Compound 13, 4-Chloro-3-{5-[1-(4-fluorobenzyl)-2,5-dioxo-imidazolidin-4-ylidenemethyl]furan-2-yl}benzoic acid] |  |  | * (50 < *) | 0 to 10% | 
7 | Cc1cc(C(=O)O)ccc1-c1ccc(/C=C2\SC(=O)N(C)C2=O)o1 [Compound 76, 3-Methyl-4-[5-(3-methyl-2,4-dioxo-thiazolidin-5-ylidenemethyl)furan-2-yl]benzoic acid] |  |  |  |  | NGF Activity % Maximal Binding ([1]; Table 2): X (40 < X < 50); activity at 50 µM ([2]; Table 2, test compound 50 μM, 0.5 nM 125I-BDNF, PC12 cells, 2 h at 4° C., specific binding as percent of control): 0 to 10%
8 | CCN1C(=O)S/C(=C\c2ccc(-c3ccc([N+](=O)[O-])cc3)o2)C1=O [Compound 110, 3-Ethyl-5-[5-(4-nitrophenyl)furan-2-ylmethylene]-thiazolidine-2,4-dione] | * (50 < *) | > 50% |  |  | 
9 | COc1ccc(-c2ccc(C=C3C(=O)N(C)C(=O)N(C)C3=O)o2)cc1[N+](=O)[O-] [Compound 31, 5-[5-(4-Methoxy-3-nitrophenyl)furan-2-ylmethylene]-1,3-dimethyl-pyrimidine-2,4,6-trione] |  |  | * (50 < *) |  | activity at 50 µM [2]: 10 to 20%
10 | COC(=O)c1ccc(-c2ccc(/C=C3/NC(=O)N(c4cccc(Cl)c4)C3=O)o2)c(C)c1 [Compound 135, 4-{5-[1-(3-Chlorophenyl)-2,5-dioxo-imidazolidin-4-ylidenemethyl]furan-2-yl}-3-methylbenzoic acid methyl ester] | * (50 < *) | > 50% |  |  | 
11 | COC(=O)c1cc(-c2ccc(/C=C3/NC(=S)NC3=O)o2)ccc1Cl [Compound 91, 2-Chloro-5-[5-(5-oxo-2-thioxo-imidazolidin-4-ylidenemethyl)furan-2-yl]benzoic acid methyl ester] | * (50 < *) | > 50% |  |  | 
12 | Cc1cc([N+](=O)[O-])ccc1-c1ccc(C=C2SC(=S)N(CC(=O)O)C2=O)o1 [Compound 40, {5-[5-(2-Methyl-4-nitrophenyl)furan-2-ylmethylene]-4-oxo-2-thioxo-thiazolidin-3-yl}-acetic acid] |  |  | * (50 < *) | 20 to 30% | 
13 | Cc1cc(C(=O)O)ccc1-c1ccc(/C=C2/NC(=O)NC2=O)o1 [Compound 41, 4-[5-(2,5-Dioxo-imidazolidin-4-ylidenemethyl)furan-2-yl]-3-methylbenzoic acid] |  |  | * (50 < *) | 20 to 30% | 
14 | Cc1cc(-c2ccc(C=C3C(=O)NC(=S)NC3=O)o2)cc([N+](=O)[O-])c1C [Compound 25, 5-[5-(3,4-Dimethyl-5-nitrophenyl)furan-2-ylmethylene]-2-thioxo-dihydro-pyrimidine-4,6-dione] |  |  | * (50 < *) |  | activity at 50 µM [2]: 0 to 10%
15 | O=C1NC(=O)N(Cc2ccccc2)C(=O)/C1=C/c1ccc(-c2cccc(C(=O)O)c2)o1 [Compound 122, 3-[5-(1-benzyl-2,4,6-trioxo-tetrahydro-pyrimidin-5-ylidenemethyl)furan-2-yl]benzoic acid] | * (50 < *) |  |  |  | activity at 50 µM [2]: > 50%
16 | COC(=O)c1cccc(-c2ccc(C=C3C(=O)NC(=S)NC3=O)o2)c1 [Compound 107, 3-[5-(4,6-Dioxo-2-thioxo-tetrahydro-pyrimidin-5-ylidenemethyl)furan-2-yl]benzoic acid methyl ester] | * (50 < *) |  |  |  | activity at 50 µM [2]: > 50%
17 | CCOC(=O)c1ccc(N2NC(=O)/C(=C/c3ccc(-c4cccc(C(=O)O)c4)o3)C2=O)cc1 [Compound 57, 3-{5-[3,5-Dioxo-1-phenyl-(4-ethyl ester)-pyrazolidin-4-ylidenemethyl]furan-2-yl}benzoic acid] |  |  | * (50 < *) | 40 to 50% | 
18 | O=C1NC(=Cc2ccc(-c3ccc(Cl)c([N+](=O)[O-])c3)o2)C(=O)N1c1ccccc1 [Compound 127, 5-[5-(4-Chloro-3-nitrophenyl)furan-2-ylmethylene]-3-phenyl-imidazolidine-2,4-dione] | * (50 < *) | > 50% |  |  | 
19 | Cc1cccc(N2NC(=O)C(=Cc3ccc(-c4ccc(Cl)c(C(=O)O)c4)o3)C2=O)c1 [Compound 134, 2-Chloro-5-[5-(3,5-dioxo-1-m-tolyl-pyrazolidin-4-ylidenemethyl)furan-2-yl]benzoic acid] | * (50 < *) | > 50% |  |  | 
20 | Cc1cc(-c2ccc(C=C3SC(=S)N(CC(=O)O)C3=O)o2)ccc1[N+](=O)[O-] [Compound 15, {5-[5-(3-Methyl-4-nitrophenyl)furan-2-ylmethylene]-4-oxo-2-thioxo-thiazolidin-3-yl}-acetic acid] |  |  |  | 0 to 10% | 
